{"source": "ChEMBL document CHEMBL1134660", "about": "“Design, synthesis, and evaluation of a long-acting, potent analogue of gonadotropin-releasing hormone” (J Med Chem, 2001)", "molecular_target": "T1, Gonadotropin-releasing hormone receptor (Rattus norvegicus, UniProt P30969)", "T1 sequence (P30969 whole entry)": "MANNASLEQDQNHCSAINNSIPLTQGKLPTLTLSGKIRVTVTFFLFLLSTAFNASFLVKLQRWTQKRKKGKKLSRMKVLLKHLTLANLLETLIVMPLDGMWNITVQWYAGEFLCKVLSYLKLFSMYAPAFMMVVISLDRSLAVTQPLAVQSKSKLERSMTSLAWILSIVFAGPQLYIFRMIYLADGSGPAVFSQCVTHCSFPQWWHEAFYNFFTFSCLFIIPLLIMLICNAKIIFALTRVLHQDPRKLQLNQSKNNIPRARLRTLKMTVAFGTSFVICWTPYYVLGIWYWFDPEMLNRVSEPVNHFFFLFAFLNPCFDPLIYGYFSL", "test": "Evaluated for gonadotropin-releasing hormone receptor binding by displacing the 50% of the bound tracer [125I][D-Lys6]-GnRH radioligand in rat pituitary receptors"}
{"smiles": "CC(C)C[C@H](NC(=O)[C@@H](CCCCNC(=O)CCCC(=O)OCc1ccc2c(c1)C(=O)c1ccccc1C2=O)NC(=O)[C@H](Cc1ccc(O)cc1)NC(=O)[C@H](CO)NC(=O)[C@H](Cc1c[nH]c2ccccc12)NC(=O)[C@H](Cc1c[nH]cn1)NC(=O)[C@@H]1CCC(=O)N1)C(=O)N[C@@H](CCCNC(=N)N)C(=O)N1CCC[C@H]1C(=O)NCC(N)=O", "values": [{"measurement": "IC50", "result": 2, "unit": "pM"}]}
